System: MV-4-11 cells
Experiment: Gene expression microarray analysis (Affymetrix PrimeView) and GSEA
Format: cell-based, human
Set-up: RFU PODN (11730768_x_at) / Fold change /veh PODN (11730768_x_at) / RFU LINC00158 (11744669_a_at) / Fold change /veh LINC00158 (11744669_a_at) / RFU DUSP10 (11751237_a_at) / Fold change /veh DUSP10 (11751237_a_at) / RFU ID3 (11757404_x_at) / Fold change /veh ID3 (11757404_x_at) / RFU PLEKHG5 (11737974_s_at) / Fold change /veh PLEKHG5 (11737974_s_at) / RFU LRRC4B (11730491_at) / Fold change /veh LRRC4B (11730491_at) / RFU GIMAP4 (11747438_a_at) / Fold change /veh GIMAP4 (11747438_a_at) / RFU KRT8 (11758183_x_at) / Fold change /veh KRT8 (11758183_x_at) / RFU CNN1 (11734310_a_at) / Fold change /veh CNN1 (11734310_a_at) / RFU VPS37D (11726825_at) / Fold change /veh VPS37D (11726825_at) / RFU C10orf10 (11716522_x_at) / Fold change /veh C10orf10 (11716522_x_at) / RFU KIR2DL2 /// KIR2DL4 /// KIR2DL5A /// KIR2DL5B /// KIR2DS1 /// KIR2DS2 /// KIR2DS3 /// KIR2DS4 /// KIR3DL3 /// KIR3DL3 /// KIR3DS1 (11738374_at) / Fold change /veh KIR2DL2 /// KIR2DL4 /// KIR2DL5A /// KIR2DL5B /// KIR2DS1 /// KIR2DS2 /// KIR2DS3 /// KIR2DS4 /// KIR3DL3 /// KIR3DL3 /// KIR3DS1 (11738374_at) / RFU C1QL1 (11718748_at) / Fold change /veh C1QL1 (11718748_at) / RFU TMPRSS4 (11747572_a_at) / Fold change /veh TMPRSS4 (11747572_a_at) / RFU HAMP (11756126_x_at) / Fold change /veh HAMP (11756126_x_at) / RFU RNFT2 (11725882_a_at) / Fold change /veh RNFT2 (11725882_a_at) / RFU NR4A2 (11747474_a_at) / Fold change /veh NR4A2 (11747474_a_at) / RFU ABCC12 (11746883_a_at) / Fold change /veh ABCC12 (11746883_a_at) / RFU TMEM136 (11760407_x_at) / Fold change /veh TMEM136 (11760407_x_at) / RFU CLDN22 /// WWC2 (11732394_at) / Fold change /veh CLDN22 /// WWC2 (11732394_at) / RFU HLA-DPB1 (11760878_x_at) / Fold change /veh HLA-DPB1 (11760878_x_at) / RFU SPINT1 (11716480_a_at) / Fold change /veh SPINT1 (11716480_a_at) / RFU GAP43 (11754022_s_at) / Fold change /veh GAP43 (11754022_s_at) / RFU A4GNT (11735810_at) / Fold change /veh A4GNT (11735810_at) / RFU PRB3 (11715151_x_at) / Fold change /veh PRB3 (11715151_x_at) / RFU TUBB4B (11761932_at) / Fold change /veh TUBB4B (11761932_at) / RFU CAPN14 (11732068_a_at) / Fold change /veh CAPN14 (11732068_a_at) / RFU TMCC2 (11721928_a_at) / Fold change /veh TMCC2 (11721928_a_at) / RFU IRGQ (11745062_a_at) / Fold change /veh IRGQ (11745062_a_at) / RFU FAM174B (11720279_a_at) / Fold change /veh FAM174B (11720279_a_at) / RFU TMPRSS4 (11748680_a_at) / Fold change /veh TMPRSS4 (11748680_a_at) / RFU FAM212B (11763350_a_at) / Fold change /veh FAM212B (11763350_a_at) / RFU PLEKHG5 (11743358_a_at) / Fold change /veh PLEKHG5 (11743358_a_at) / RFU ZSCAN30 (11745921_a_at) / Fold change /veh ZSCAN30 (11745921_a_at) / RFU CMKLR1 (11741424_a_at) / Fold change /veh CMKLR1 (11741424_a_at) / RFU LOC101060620 /// MAPK8IP1 (11723275_at) / Fold change /veh LOC101060620 /// MAPK8IP1 (11723275_at) / RFU SPTSSB (11747773_x_at) / Fold change /veh SPTSSB (11747773_x_at) / RFU PRSS12 (11739890_at) / Fold change /veh PRSS12 (11739890_at) / RFU BIN1 (11741810_x_at) / Fold change /veh BIN1 (11741810_x_at) / RFU WNT11 (11732464_a_at) / Fold change /veh WNT11 (11732464_a_at) / RFU C10orf10 (11716521_a_at) / Fold change /veh C10orf10 (11716521_a_at) / RFU C5orf56 (11738089_at) / Fold change /veh C5orf56 (11738089_at) / RFU CYB561 (11721691_x_at) / Fold change /veh CYB561 (11721691_x_at) / RFU ANKRD19P (11752326_a_at) / Fold change /veh ANKRD19P (11752326_a_at) / RFU OR2T12 /// OR2T33 /// OR2T8 (11738714_s_at) / Fold change /veh OR2T12 /// OR2T33 /// OR2T8 (11738714_s_at) / RFU VCAN (11748164_a_at) / Fold change /veh VCAN (11748164_a_at) / RFU JSRP1 (11732532_at) / Fold change /veh JSRP1 (11732532_at) / RFU KRTAP10-11 (11738290_x_at) / Fold change /veh KRTAP10-11 (11738290_x_at) / RFU MYO3A (11730013_a_at) / Fold change /veh MYO3A (11730013_a_at) / RFU EBF3 (11725865_a_at) / Fold change /veh EBF3 (11725865_a_at) / RFU CAMK2N1 (11719241_x_at) / Fold change /veh CAMK2N1 (11719241_x_at) / RFU C5orf56 (11738088_a_at) / Fold change /veh C5orf56 (11738088_a_at) / RFU OLFML3 (11715873_a_at) / Fold change /veh OLFML3 (11715873_a_at) / RFU LOC100653217 /// NTM (11731650_a_at) / Fold change /veh LOC100653217 /// NTM (11731650_a_at) / RFU MAPK11 (11762145_a_at) / Fold change /veh MAPK11 (11762145_a_at) / RFU FIZ1 (11724087_x_at) / Fold change /veh FIZ1 (11724087_x_at) / RFU OASL (11726364_x_at) / Fold change /veh OASL (11726364_x_at) / RFU SOX15 (11748057_x_at) / Fold change /veh SOX15 (11748057_x_at) / RFU CD79A (11719716_a_at) / Fold change /veh CD79A (11719716_a_at) / RFU HIST1H1D (11736915_at) / Fold change /veh HIST1H1D (11736915_at) / RFU CASKIN2 (11723855_a_at) / Fold change /veh CASKIN2 (11723855_a_at) / RFU LOC730098 (11760151_x_at) / Fold change /veh LOC730098 (11760151_x_at) / RFU OR4N2 (11742367_at) / Fold change /veh OR4N2 (11742367_at) / RFU PRRT2 (11749266_a_at) / Fold change /veh PRRT2 (11749266_a_at) / RFU SNX32 (11753110_a_at) / Fold change /veh SNX32 (11753110_a_at) / RFU CDHR5 (11726645_a_at) / Fold change /veh CDHR5 (11726645_a_at) / RFU RCAN1 (11760418_a_at) / Fold change /veh RCAN1 (11760418_a_at) / RFU FAM167A (11723789_a_at) / Fold change /veh FAM167A (11723789_a_at) / RFU FAM26E (11764081_at) / Fold change /veh FAM26E (11764081_at) / RFU ISYNA1 (11749810_s_at) / Fold change /veh ISYNA1 (11749810_s_at) / RFU ACY1 (11761880_at) / Fold change /veh ACY1 (11761880_at) / RFU 11764098_at / Fold change /veh 11764098_at / RFU SAMD14 (11745864_x_at) / Fold change /veh SAMD14 (11745864_x_at) / RFU NPB (11741838_a_at) / Fold change /veh NPB (11741838_a_at) / RFU TMPRSS6 (11731388_a_at) / Fold change /veh TMPRSS6 (11731388_a_at) / RFU KRTAP10-2 (11738614_at) / Fold change /veh KRTAP10-2 (11738614_at) / RFU ARHGAP8 /// PRR5-ARHGAP8 (11727945_x_at) / Fold change /veh ARHGAP8 /// PRR5-ARHGAP8 (11727945_x_at) / RFU KRTAP5-7 /// NADSYN1 (11734609_at) / Fold change /veh KRTAP5-7 /// NADSYN1 (11734609_at) / RFU RASL12 (11751679_a_at) / Fold change /veh RASL12 (11751679_a_at) / RFU CDKN2B (11736163_a_at) / Fold change /veh CDKN2B (11736163_a_at) / RFU PRF1 (11729649_at) / Fold change /veh PRF1 (11729649_at) / RFU, ZNF638 /// ZNF638-IT1 / Fold change vs veh, ZNF638 /// ZNF638-IT1 / RFU, PANK3 / Fold change vs veh, PANK3 / RFU, SH3YL1 / Fold change vs veh, SH3YL1 / RFU, ZEB2 / Fold change vs veh, ZEB2 / RFU, NRIP1 / Fold change vs veh, NRIP1 / RFU, PTTG1IP / Fold change vs veh, PTTG1IP / RFU, CAPN2 / Fold change vs veh, CAPN2 / RFU, MED14 / Fold change vs veh, MED14 / RFU, SNORA58 / Fold change vs veh, SNORA58 / RFU, C1orf63 / Fold change vs veh, C1orf63 / RFU, LRRFIP1 / Fold change vs veh, LRRFIP1 / RFU, NDUFAF7 / Fold change vs veh, NDUFAF7 / RFU, SLC12A2 / Fold change vs veh, SLC12A2 / RFU, IBTK / Fold change vs veh, IBTK / RFU, ESF1 / Fold change vs veh, ESF1 / Fold change vs veh, TMEM50B / RFU, TAOK1 / Fold change vs veh, TAOK1 / RFU, ACBD3 / Fold change vs veh, ACBD3 / RFU, TMA16 / Fold change vs veh, TMA16 / RFU, RWDD3 / Fold change vs veh, RWDD3 / RFU, BCAT1 / Fold change vs veh, BCAT1 / RFU, EDEM3 / Fold change vs veh, EDEM3 / RFU, TMEM33 / Fold change vs veh, TMEM33 / RFU, WDR75 / Fold change vs veh, WDR75 / RFU, AHCTF1 / Fold change vs veh, AHCTF1 / RFU, TFRC / Fold change vs veh, TFRC / RFU, ZDHHC17 / Fold change vs veh, ZDHHC17 / RFU, NOM1 / Fold change vs veh, NOM1 / RFU, ARL8B / Fold change vs veh, ARL8B / RFU, ZBTB11 / Fold change vs veh, ZBTB11 / RFU, TAMM41 / Fold change vs veh, TAMM41 / RFU, KIAA1704 /// LOC100996395 / Fold change vs veh, KIAA1704 /// LOC100996395 / RFU, ING1 / Fold change vs veh, ING1 / RFU, TRMT61B / Fold change vs veh, TRMT61B / RFU, FUBP3 / Fold change vs veh, FUBP3 / RFU, TP53 / Fold change vs veh, TP53 / RFU, TNKS2 / Fold change vs veh, TNKS2 / RFU, ZFP14 / Fold change vs veh, ZFP14 / RFU, ACTR2 / Fold change vs veh, ACTR2 / RFU, PPP3R1 / Fold change vs veh, PPP3R1 / RFU, PIK3R1 / Fold change vs veh, PIK3R1 / RFU, HNRNPA1 / Fold change vs veh, HNRNPA1 / RFU, RNF170 / Fold change vs veh, RNF170 / RFU, ZNF28 / Fold change vs veh, ZNF28 / RFU, RNGTT / Fold change vs veh, RNGTT / RFU, OGT / Fold change vs veh, OGT / RFU, BRD1 / Fold change vs veh, BRD1 / RFU, MARS / Fold change vs veh, MARS / RFU, ZNF655 / Fold change vs veh, ZNF655 / RFU, FAHD1 / Fold change vs veh, FAHD1 / RFU, BDP1 / Fold change vs veh, BDP1 / RFU, LRRCC1 / Fold change vs veh, LRRCC1 / RFU, ARID1A / Fold change vs veh, ARID1A / RFU, ZNF146 / Fold change vs veh, ZNF146 / RFU, ZNF330 / Fold change vs veh, ZNF330 / RFU, GPN3 / Fold change vs veh, GPN3 / RFU, C9orf123 / Fold change vs veh, C9orf123 / RFU, N4BP2L2 / Fold change vs veh, N4BP2L2 / RFU, ARFIP1 / Fold change vs veh, ARFIP1 / RFU, FAM179B / Fold change vs veh, FAM179B / RFU, BCL10 / Fold change vs veh, BCL10 / RFU, UHRF1BP1L / Fold change vs veh, UHRF1BP1L / RFU, BET1 / Fold change vs veh, BET1 / RFU, CNOT2 / Fold change vs veh, CNOT2 / RFU, ZNF268 / Fold change vs veh, ZNF268 / Fold change vs veh, ZNF507 / RFU, DGCR2 / Fold change vs veh, DGCR2 / RFU, WDSUB1 / Fold change vs veh, WDSUB1 / Fold change vs veh, HSP90B1 /// MIR3652 / RFU, ADSS / Fold change vs veh, ADSS / RFU, GK / Fold change vs veh, GK / RFU, ZNF148 / Fold change vs veh, ZNF148 / RFU, TAF9 / Fold change vs veh, TAF9 / RFU, SLC1A5 / Fold change vs veh, SLC1A5 / RFU, SLMO2 / Fold change vs veh, SLMO2 / RFU, ABCC4 / Fold change vs veh, ABCC4 / RFU, LOC101060439 /// RAP1B / Fold change vs veh, LOC101060439 /// RAP1B / RFU, RFX7 / Fold change vs veh, RFX7 / RFU, GTPBP10 / Fold change vs veh, GTPBP10 / RFU, CNEP1R1 / Fold change vs veh, CNEP1R1 / RFU, BIVM-ERCC5 /// ERCC5 / Fold change vs veh, BIVM-ERCC5 /// ERCC5 / RFU, ILF3 / Fold change vs veh, ILF3 / RFU 11762660_at / Fold change /veh 11762660_at / RFU VCAN (11757783_s_at) / Fold change /veh VCAN (11757783_s_at) / RFU DDX43 (11728927_at) / Fold change /veh DDX43 (11728927_at) / RFU KRT8 (11758188_x_at) / Fold change /veh KRT8 (11758188_x_at) / RFU NKD1 (11759106_at) / Fold change /veh NKD1 (11759106_at) / RFU SRD5A1 (11742802_a_at) / Fold change /veh SRD5A1 (11742802_a_at) / RFU TPSAB1 /// TPSB2 (11721975_s_at) / Fold change /veh TPSAB1 /// TPSB2 (11721975_s_at) / RFU GSTM3 (11746129_a_at) / Fold change /veh GSTM3 (11746129_a_at) / RFU IL23R (11737362_x_at) / Fold change /veh IL23R (11737362_x_at) / RFU TMEM51 (11727254_a_at) / Fold change /veh TMEM51 (11727254_a_at) / RFU PIWIL2 (11732686_x_at) / Fold change /veh PIWIL2 (11732686_x_at) / RFU ORM1 (11744905_x_at) / Fold change /veh ORM1 (11744905_x_at) / RFU CCDC152 (11743942_at) / Fold change /veh CCDC152 (11743942_at) / RFU ECM1 (11717891_a_at) / Fold change /veh ECM1 (11717891_a_at) / RFU IL23R (11748794_a_at) / Fold change /veh IL23R (11748794_a_at) / RFU TNFAIP8L3 (11732012_x_at) / Fold change /veh TNFAIP8L3 (11732012_x_at) / RFU MBOAT4 (11741988_at) / Fold change /veh MBOAT4 (11741988_at) / RFU 11764193_at / Fold change /veh 11764193_at / RFU TMEM53 (11763286_at) / Fold change /veh TMEM53 (11763286_at) / RFU MAGEB2 (11727129_at) / Fold change /veh MAGEB2 (11727129_at) / RFU TMEM200A (11744735_a_at) / Fold change /veh TMEM200A (11744735_a_at) / RFU CCDC152 (11751479_a_at) / Fold change /veh CCDC152 (11751479_a_at) / RFU FAM211A (11726209_a_at) / Fold change /veh FAM211A (11726209_a_at) / RFU RGS16 (11746705_a_at) / Fold change /veh RGS16 (11746705_a_at) / RFU VCAN (11755009_s_at) / Fold change /veh VCAN (11755009_s_at) / RFU RHOB (11743442_s_at) / Fold change /veh RHOB (11743442_s_at) / RFU RGS16 (11720943_a_at) / Fold change /veh RGS16 (11720943_a_at) / RFU RGS16 (11720944_at) / Fold change /veh RGS16 (11720944_at) / RFU, VPS4B / Fold change vs veh, VPS4B / RFU, CREB1 / Fold change vs veh, CREB1 / RFU, DNAJC13 / Fold change vs veh, DNAJC13 / RFU, GNAQ / Fold change vs veh, GNAQ / RFU, CDK5R1 / Fold change vs veh, CDK5R1 / RFU, ZRANB3 / Fold change vs veh, ZRANB3 / RFU, CUL4A / Fold change vs veh, CUL4A / RFU, CCNY / Fold change vs veh, CCNY / RFU, UFL1 / Fold change vs veh, UFL1 / RFU, COG3 / Fold change vs veh, COG3 / RFU, DIAPH2 / Fold change vs veh, DIAPH2 / RFU, SKA2 / Fold change vs veh, SKA2 / RFU, AFF3 / Fold change vs veh, AFF3 / RFU, LMF1 / Fold change vs veh, LMF1 / RFU, IPO11 / Fold change vs veh, IPO11 / RFU, DFFB / Fold change vs veh, DFFB / RFU, FOXP1 / Fold change vs veh, FOXP1 / RFU, CARD8 / Fold change vs veh, CARD8 / RFU, STRN3 / Fold change vs veh, STRN3 / RFU, ADK / Fold change vs veh, ADK / RFU, RASSF2 / Fold change vs veh, RASSF2 / RFU, WIPF1 / Fold change vs veh, WIPF1 / RFU, LARP1B / Fold change vs veh, LARP1B / RFU, RASA1 / Fold change vs veh, RASA1 / RFU, RB1 / Fold change vs veh, RB1 / RFU, PPFIA1 / Fold change vs veh, PPFIA1 / RFU, MAT2A / Fold change vs veh, MAT2A / RFU, CCT5 / Fold change vs veh, CCT5 / RFU, WDR92 / Fold change vs veh, WDR92 / RFU, CUX1 / Fold change vs veh, CUX1 / RFU, TTC7A / Fold change vs veh, TTC7A / RFU, TMEM135 / Fold change vs veh, TMEM135 / RFU, DEPTOR / Fold change vs veh, DEPTOR / RFU, CPM / Fold change vs veh, CPM / RFU, DNAJB6 / Fold change vs veh, DNAJB6 / RFU, CACNA2D3 / Fold change vs veh, CACNA2D3 / RFU, DTX4 / Fold change vs veh, DTX4 / RFU, TFCP2 / Fold change vs veh, TFCP2 / RFU, GMCL1 /// GMCL1P1 / Fold change vs veh, GMCL1 /// GMCL1P1 / RFU, AEBP2 / Fold change vs veh, AEBP2 / RFU, SNHG1 /// SNORD22 /// SNORD25 /// SNORD26 /// SNORD27 /// SNORD28 /// SNORD29 /// SNORD31 / Fold change vs veh, SNHG1 /// SNORD22 /// SNORD25 /// SNORD26 /// SNORD27 /// SNORD28 /// SNORD29 /// SNORD31 / Fold change (Aza/veh), C12orf56 (ProbeSet 11735607_a_at) / Fold change (ACY-1035/veh), C12orf56 (ProbeSet 11735607_a_at) / Fold change (Aza/veh), FGFR1OP (ProbeSet 11751329_s_at) / Fold change (ACY-1035/veh), FGFR1OP (ProbeSet 11751329_s_at) / Fold change (Aza/veh), VPS36 (ProbeSet 11739960_a_at) / Fold change (ACY-1035/veh), VPS36 (ProbeSet 11739960_a_at) / RFU SYPL1 (11715823_x_at) / Fold change /veh SYPL1 (11715823_x_at) / RFU IGFBP7 (11715501_s_at) / Fold change /veh IGFBP7 (11715501_s_at) / RFU REEP3 (11722064_at) / Fold change /veh REEP3 (11722064_at) / RFU IGLL1 (11728026_x_at) / Fold change /veh IGLL1 (11728026_x_at): dose or concentration left out as unconfirmed
Settings: ProbeSet 11716891_at; LIST B

Nc1ccc(-c2cccs2)cc1NC(=O)c1ccc2c(c1)cc(C1CC1)n2CCN1CCOCC1 [ACY-1035]
Fold change vs veh, C9orf123: 1.03

Reference: article PMC5218480 (PLoS ONE, 2017)
